Laboratory results taken from publication doi:10.1101/2025.08.13.670122v1 (bioRxiv, 2025).

What was measured:
[1] = system: Sprague-Dawley rats; experiment: Simultaneous in vivo echocardiography and blood pressure measurements; parameters: species or system rat; conditions: intrajugular perfusion 0.96 nmol kg−1 min−1, n = 4; for Change in left ventricular ejection fraction (ΔEF) / cardiac contractility: isoflurane-anesthetized Sprague-Dawley rats; for Change in mean arterial blood pressure (ΔMABP): isoflurane-anesthetized normotensive Sprague-Dawley rats
Protocol: All ligands were administered intravenously at the same dose (0.96 nmol kg^−1 min^−1), by instrumentalizing adult Sprague-Dawley rats for simultaneous recordings of arterial blood pressure and cardiac function (Figure 5A).
Figure 5. Simultaneous in vivo cardiac ultrasound imaging and blood pressure monitoring of adult Sprague-Dawley rats following constant administration of AT1R ligands. (A) The acquisition setup for each isoflurane-anesthetized rat includes a catheter in the right femoral artery connected to a TDX300 Micro-med transducer and BPA-100c blood pressure (BP) analyzer for continuous BP measurement, while drug administration is performed via a catheter inserted in the left jugular vein and linked to an automatic syringe pump set at a flow rate of 30 µl*min^−1. […] The syringe pump is initiated at 0 s, and the catheter’s saline dead volume is flushed in approximately 180 s.
Figure 6. […] Changes in mean arterial blood pressure (ΔMABP; A), ejection fraction (ΔEF; B), left ventricular end-systolic (ΔLVES; C) and end-diastolic (ΔLVEDV; D) volumes, and stroke volume (ΔSV; E) were measured from simultaneous in vivo cardiac blood pressure monitoring and ultrasound imaging. […] The syringe pump is initiated at 0 s, and the catheter’s saline dead volume is flushed in approximately 180 s. […] Statistical analyses were performed with an unpaired standard t-test. * p < 0.05, ** p < 0.01 and ***p<0.005.
Male Sprague-Dawley rats (230–350 g, 7–9 weeks of age) were initially anesthetized with 5% isoflurane (mixed with 100% oxygen at a flow rate of 2.5 L/min). The animal was placed in a supine position on a thermostatic pad set at 37°C, and anesthesia was maintained with 2% isoflurane, confirmed by the absence of reflexes to toe pinch. The right femoral artery was cannulated with a PE 50 catheter filled with heparinized saline (10 units/mL) and connected to a Micro-Med transducer (TDX-300) and a Micro-Med blood pressure analyzer (BPA-100c). The left jugular vein was also cannulated with a PE 50 catheter filled with heparinized saline (10 units/mL) and connected to a syringe operated by an automatic pump with a flow rate of 30 µL min-1. […] Blood pressure parameters were continuously obtained throughout the experiment, and heart function parameters were simultaneously captured at various time points using a Vevo3100 echocardiography system equipped with an MX250 ultrasound probe (FUJIFILM VisualSonics). The ejection fraction was determined from a parasternal long-axis view of the left ventricle in B-mode imaging and analyzed using Vevo LAB 5.7.1 (FUJIFILM VisualSonics). Data were presented as the mean ± SEM of four different rats per group. Statistical analyses were conducted with standard analysis of variance (ANOVA) followed by Tukey’s multiple comparisons test. […]

[2] = target: T1, endogenous AT1R (Rattus norvegicus, UniProt P25095); experiment: Rho BRET sensor in rat primary VSMC with endogenous AT1R; type: cell-based; conditions: adenoviral Rho BRET sensor, 1 min 30 s stimulation, mean ± SEM of at least three to five independent experiments, read-out: EC50 Rho in VSMCs
T1 construct: expressing low levels of endogenous AT1R; endogenous in cells; host or cells: rat primary VSMC, passages 13-15
T1 sequence (P25095 1-359): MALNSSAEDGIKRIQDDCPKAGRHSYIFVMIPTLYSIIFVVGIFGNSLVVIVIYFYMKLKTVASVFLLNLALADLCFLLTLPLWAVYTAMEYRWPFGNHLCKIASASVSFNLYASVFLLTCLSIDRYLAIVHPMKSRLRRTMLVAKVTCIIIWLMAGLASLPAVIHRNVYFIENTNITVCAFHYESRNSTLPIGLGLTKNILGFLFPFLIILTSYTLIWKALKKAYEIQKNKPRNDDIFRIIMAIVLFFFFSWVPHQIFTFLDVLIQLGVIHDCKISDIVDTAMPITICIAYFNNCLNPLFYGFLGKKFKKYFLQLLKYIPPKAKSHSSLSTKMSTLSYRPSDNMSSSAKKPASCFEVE
Description: (§1) We next assessed the analogs’ ability to engage Gαq by assessing either the PKC or Rho responses in rat primary vascular smooth muscle cell (VSMC) culture, expressing low levels of endogenous AT1R (between 25–50 fmol/mg) (Figure 4, Table 6).
(§2) The coding regions of the PKC-c1b sensor, PKN-RBD-RlucII, and rGFPcaax were PCR-amplified and subcloned into the KpnI/XhoI sites of the pENTR3C vector (Invitrogen), respectively. These were then transferred into the adenoviral expression vector pAd/CMV/V5-DEST (Invitrogen), via gateway cloning (pAD-CMV-PKC-c1b, pAD-CMV-PKN-RBD-RLucII, and pAD-CMV-rGFPcaax). Viruses containing the sensor codes were generated following a previously outlined process.[49] […] The following day, cells were transfected with 4 µg of PacI-digested pAd5-CMVsensors using Lipofectamine 2000 (Invitrogen). After 7–10 days post-transfection, mature virus particles were gleaned via the collection of cells and media, which then underwent multiple cycles of freezing and thawing, followed by centrifugation. The harvested virus was amplified by re-infection on 100-mm dishes of confluent HEK293A cells, and harvested 48-72 h later. Viral titers were determined by serial dilution of adenovirus stock and subsequent infection of HEK293A cells in 96-well plates. 36 h after infection, cells were stained using an anti-hexon antibody (ab8249; Abcam), and hexon-expressing cells were tallied via fluorescence microscopy. The virus was then stored at −80°C. After this, rat VSMCs (between the 13th to 15th passages) were seeded at a density of 20,000 cells in each well of white 96-well plates 24 h before transduction with the viral vector. The cells were then transduced with the PKC sensor-adenovirus (3 μL per well) or Rho sensor (1 μL each per well of PKN-RBD-RLucII-adnovirus and rGFP-caax adenovirus). After 24 h, the medium was replaced. 48 h post-viral transduction, the cells were thoroughly washed with Tyrode’s buffer. Finally, BRET assays were carried out as detailed below.
(§3) On the day of the experiment, each well was washed with 80 µL of Tyrode’s buffer (140 mM NaCl, 2.7 mM KCl, 1 mM CaCl2, 12 mM NaHCO3, 5.6 mM D-glucose, 0.5 mM MgCl2, 0.37 mM NaH2PO4, 25 mM Hepes (pH 7.4)). This was followed by incubation for 1 h in Tyrode’s buffer at room temperature. For the Gαq, β-arrestin-2, and PKC biosensors used in HEK293 cells, coelenterazine 400A (at a final concentration of 5 μM) was added 10 min before stimulation. Cells were then stimulated with increasing doses of the indicated ligand, and BRET signals were measured using a Tristar2 (Berthold) microplate reader 10 min later. For the PKC and Rho biosensors in VSMCs, and the Rho biosensor in ΔG12/13 cells, cells were similarly stimulated with ligands for 1 min, 1 min 30 s, and 3 min, respectively, before BRET measurement. […] BRET signals were then measured using a Synergy2 (BioTek) microplate reader. The applied filter set was 410/80 nm and 515/30 nm, designed to detect the light emissions of RlucII (Renilla luciferase) (donor) and rGFP (acceptor), respectively.

[3] = Plasma stability; type: in vitro ADME; conditions: male Sprague-Dawley rat plasma, 6 μL of 1 mM compound (10% DMSO) in 27 μL plasma, 37°C, 0-24 h, UPLC-MS, one-phase decay, mean ± SEM of at least three experiments, read-out: Plasmatic half-life t1/2 (±SEM)
Protocol: The degradation was quenched by adding 140 μL of 1% formic acid in an acetonitrile-ethanol (1:1) solution containing 0.25 mM of N,N-dimethylbenzamide (used as an internal standard). This mixture was initially transferred to an Impact Protein Precipitation filter plate (Phenomenex, California), the filtrates from which were subsequently collected in a second 96-well UPLC plate. Both plates were centrifuged at 500 g for 10 min while maintaining a temperature of 4°C. The filtrates were then diluted with 30 μL of distilled water and processed for analysis using an Acquity UPLC-MS system class H (using an Acquity UPLC protein BEH C18 column that measured 2.1 mm × 50 mm and had 1.7 μm particles with pores 130 Å in width). The peptide half-life, derived from the degradation curve, was calculated using the exponential one-phase decay function in GraphPad Prism 9. Degradation was estimated by comparing the mass spectrum at each point with those at the zero-minute mark. The data were presented as a mean ± SEM of at least three unique experiments, each performed in singlicate.

[4] = target: T1, endogenous AT1R; experiment: PKC BRET sensor in rat primary VSMC with endogenous AT1R; type: cell-based; conditions: adenoviral PKC BRET sensor, 1 min stimulation, mean ± SEM of at least three to five independent experiments, read-out: EC50 PKC in VSMCs
Description: as §1, §2, §3

EC50 [2] | half-life at 182 µM [3] | EC50 [4] | SMILES | Change in left ventricular ejection fraction (ΔEF) / cardiac contractility [1] | Change in mean arterial blood pressure (ΔMABP) [1]
– | – | – | CC[C@H](C)[C@H](NC(=O)[C@H](Cc1ccc(O)cc1)NC(=O)[C@@H](NC(=O)[C@H](CCCNC(=N)N)NC(=O)[C@@H](N)CC(=O)O)C(C)C)C(=O)N[C@@H](Cc1c[nH]cn1)C(=O)N1CCC[C@H]1C(=O)N[C@@H](Cc1ccccc1)C(=O)O [AngII, Angiotensin II] | significant decrease in cardiac ejection fraction of the left ventricle | rapid and sustained increase in arterial blood pressure
> 10 µM | 964 ± 72 min | > 10 µM | CC[C@H](C)[C@H](NC(=O)[C@H](Cc1ccc(O)cc1)NC(=O)[C@@H](NC(=O)[C@H](CCCNC(=N)N)NC(=O)CNC)C(C)C)C(=O)N[C@@H](Cc1cnc[nH]1)C(=O)N1CCC[C@H]1C(=O)N[C@H](C)C(=O)O [TRV027, reference compound] | – | –
– | – | – | CCCc1nc(C(C)(C)O)c(C(=O)O)n1Cc1ccc(-c2ccccc2-c2nnn[nH]2)cc1 [Olmesartan] | did not alter the cardiovascular parameters measured | did not alter the cardiovascular parameters measured
